Tests used:
[1] = Pharmacokinetics in Wistar rats; format: in vivo, Wistar rat
Protocol: Five Wistar rats were injected intravenously (IV) with BK124.1 at 5 mg/kg or 10 mg/kg concentration, in 10% Solutol HS15/10% ethanol. The blood was taken from each animal after 5, 15, and 30 min, 1, 2, 6, and 24 h post-injection. Blood BK124.1 concentration was measured using mass spectrometry.

[2] = Pharmacokinetics in Balb/c nude mice; format: in vivo; details: for MRT last / half-life / AUC(0-inf) / C0: Balb/c nude; for AUC(0-inf): extrapolated to infinity; for C0: extrapolated to t = 0
Protocol: Eight-week-old female Balb/c nude mice were randomly divided into test groups and injected with BK124.1 either intraperitoneally, at 20 mg/kg or 40 mg/kg concentrations, or intravenously at 20 mg/kg concentration. The compound blood concentration was measured 15 min, 6, 12, and 24 h post-injection. For each time point, 4 mice were sacrificed. BK124.1 concentration in the bloodstream was analyzed using mass spectrometry. Toxicology was assessed by examining physiological and morphological changes at the injection site, the appearance of internal organs (liver, heart, kidneys, and spleen), blood tests, body mass, and animal behavior.

[3] = Stability of BK124.1 concentrate for injection; format: physicochemical; details: 1 mg BK124.1 in 50% Solutol HS 15/50% ethanol, 30-36 °C
Excerpt: Additional file 2: Supplementary methods
The antibodies (Ab) used in the flow cytometry and immunoblotti ng experiments are listed according to the targeted protein and the vendor. Antibodies: BD Transduction Laboratories - p38 (ref. 612288), p-p38 (ref. 612289); Cell Signalling Technologies - c-Abl (ref. 2862), Akt (pan) (C67E7) (ref. 4691), STAT5 […]
(ref. 9102); Santa Cruz Biotechnology - Lamin B1 (A11) (ref. sc-377000), JNK, (ref. sc-7345), p-JNK (ref. sc-6254); Sigma - α-tubulin (ref. T-6074). Biolegend, San Diego, CA, USA - CD34 (CD34-APC), CD38 (anti- […]
BK124.1 preparation for injection
In the first step, 50 µL of Solutol HS 15 and 50 µL of anhydrous ethanol 99.8% were added to 1 mg of BK124.1, to obtain a solution of 50% Solutol HS 15/50% ethanol. This solution was shaken (1-2 h) at 30-40 °C until BK124.1 was completely dissolved. This solution was stable for 48 hours at temperatures between 30-36 °C. This concentrate is sticky, has poor filtration and portioning properties, and so cannot be administered intravenously or intraperitoneally without dilution. Therefore, in the second step, the prepared concentrate was diluted with aqua pro injectione to obtain a concentration of 10% Solutol HS 15/10% ethanol. […]

[4] = Blood morphology in K562 xenograft mice; details: for GRA / MON / HGB / WBC / MPV / RBC / RDW / MCH / MCHC / HCT / MCV / LYMP: N=4; for GRA / MON / LYMP: standard range 0.0-99.0; for HGB: standard range 1.1-18; for WBC: standard range 3.0-15; for MPV: standard range 4.6-7.3; for RBC: standard range 5.0-12; for RDW: standard range 11.5-14.5; for MCH: standard range 12-24.5; for MCHC: standard range 21.6-42; for HCT: standard range 36-52; for MCV: standard range 44-69
Protocol: Eight-week-old female NOD.Cg-Prkdcscid Il2rgtm1Wjl/SzJ NSG mice (Jackson Laboratory, Bar Harbor, ME, USA) were injected subcutaneously into the dorsal fold with 1 × 10^6 K562 cells of the human chronic myeloid leukemia (CML) line in a final volume of 100 µL (0.5% of the mouse weight). On day 3 after cell administration, mice were randomly assigned to each group, and on days 4–17 of the experiment, the selected tested compounds and control solutions were administered intraperitoneally or orally. During the experiment, subcutaneous tumors and body weight were measured daily. Tumor growth during the experiment was measured with an electronic display caliper. The theoretical tumor volume [mm], was calculated according to the formula (a^2 × b) * 0.5, where a is the shorter tumor axis [mm] and b is the longer tumor axis [mm]. On day 26, the experiment was terminated: blood was collected and analyzed for cellular morphology and standard biochemistry metabolites. Tumors were weighed.
Control and treated mice were grouped according to the tested compounds and the scheme of their administrations (doses, administration frequencies, routes of administration) in the CML xenogeneic model obtained by subcutaneous transplantation of 1 × 10^6 cells of the human CML blast line K562 into mice NOD.Cg-Prkdcscid Il2rgtm1Wjl/SzJ (NSG).
Hydroxyurea K562 500 mg/kg, IP Aqua pro 1 x daily 8

[5] = IP 20 mg/kg, whole blood, female mouse
[6] = IP 40 mg/kg, whole blood, female mouse
[7] = IV 20 mg/kg, whole blood, female mouse
[8] = 20 mg/kg IP daily 14 days, mean ± SD
[9] = 30 mg/kg IP daily 14 days, mean ± SD
[10] = 30 mg/kg IP daily 14 days, mean

CCC12C(=O)C(CC)(C(c3ccccc3)=C1c1ccccc1)C1C(=O)N(CC(O)CNC(C)C)C(=O)C12 (stereo not shown) [BK124.1, 4-[2-hydroxy-3-(propan-2-ylamino)propyl]-1,7-diethyl-8,9-diphenyl-4-azatricyclo [5.2.1.02,6]dec-8-ene-3,5,10-trione]
Time BK124.1 remains detectable in the peripheral blood ([1]; IV 10 mg/kg (Figure 1A)): 24 h
half-life ([1]; Wistar, rat, IV 10 mg/kg, blood): 4.39 h
MRT last [2, 5]: 5.09 h
half-life [2, 5]: 3.53 h
AUC(0-inf) [2, 5]: 9580 ng·h/mL
C0 [2, 5]: 1740 ng/mL
MRT last [2, 6]: 7.48 h
half-life [2, 6]: 5.18 h
AUC(0-inf) [2, 6]: 23500 ng·h/mL
C0 [2, 6]: 2760 ng/mL
MRT last [2, 7]: 4.78 h
half-life [2, 7]: 3.31 h
AUC(0-inf) [2, 7]: 6620 ng·h/mL
C0 [2, 7]: 1020 ng/mL
AUClast, dose normalized [2, 5]: 3.24 kg·ng·h/mL/mg
AUC∞, dose normalized [2, 5]: 479 kg·ng·h/mL/mg
AUClast, dose normalized [2, 6]: 16.18 kg·ng·h/mL/mg
AUC∞, dose normalized [2, 6]: 587 kg·ng·h/mL/mg
AUClast, dose normalized [2, 7]: 2.50 kg·ng·h/mL/mg
AUC∞, dose normalized [2, 7]: 331 kg·ng·h/mL/mg
half-life ([2]; female, mouse, IP 20 mg/kg, blood): 3.53 h
half-life ([2]; female, mouse, IP 40 mg/kg, blood): 5.18 h
half-life ([2]; female, mouse, IV 20 mg/kg, blood): 3.31 h
Time the solution was stable [3]: 48 h
GRA [4, 8]: 39.3±9.8%
MON [4, 8]: 17.8±2.8%
HGB [4, 8]: 12.3 ± 0.7 g/dL
WBC [4, 8]: 14.9±4.7 103/μL
MPV [4, 8]: 5.0±0.2 μm3
RBC [4, 8]: 7.1±0.4 106/μL
RDW [4, 8]: 13.1±0.4%
MCH [4, 8]: 17.3 ± 0.3 pg
MCHC [4, 8]: 32.4 ± 0.3 g/dL
HCT [4, 8]: 38.0±2.3%
MCV [4, 8]: 53.3±0.5
LYMP ([4]; 20 mg/kg IP daily 14 days, mean): 42.9%
MON [4, 9]: 15.4±3.8%
HGB [4, 9]: 13.5 ± 0.5 g/dL
WBC [4, 9]: 10.5±5.0 103/μL
MPV [4, 9]: 5.1±0.2 μm3
RBC [4, 9]: 7.9±0.2 106/μL
RDW [4, 9]: 12.9±0.1%
MCH [4, 9]: 17.2 ± 0.4 pg
MCHC [4, 9]: 32.4 ± 0.6 g/dL
HCT [4, 9]: 41.7±0.9%
MCV [4, 9]: 52.8±1.0
GRA [4, 10]: 43.1%
LYMP [4, 10]: 41.6%
Blood morphology parameters ([4]; doses as in Table S3): within the norm
